Literature values, collected in PMC11267547, “Advancing drug discovery through assay development: a survey of tool compounds within the human solute carrier superfamily” (Frontiers in Pharmacology, 2024).

Experiments:
SLC22A1 = test system: SLC22A1; set-up: method as in PMID 18788725, 9655880, 28230985; settings: ChEMBL CHEMBL994103, CHEMBL2076233, CHEMBL4009597; ref PMID 18788725, 9655880, 28230985; cited from earlier work
SLC22A3 = test system: SLC22A3; set-up: method as in PMID 10966924; settings: ChEMBL CHEMBL2078549; ref PMID 10966924; cited from earlier work
SLC22A6 (OAT1) = settings: cited from earlier work
SLC6A15 = test system: SLC6A15; set-up: method as in ChEMBL, GtoPdb, pubmed 25318072; settings: SLC6A15, known data from the KNIME workflow; ref ChEMBL, GtoPdb, pubmed 25318072; cited from earlier work
HRH1 = test system: HRH1; set-up: method as in other_targets_pubmed_ids column; settings: cited from earlier work
PTAFR = test system: PTAFR; set-up: method as in other_targets_pubmed_ids column; settings: cited from earlier work
KCNK9 = test system: KCNK9; set-up: method as in other_targets_pubmed_ids column; settings: cited from earlier work

## CNCCCN1c2ccccc2CCc2ccccc21 [Desipramine]
SLC22A1
  primary_SLC_act, SLC22A1: 5.04
SLC22A3
  primary_SLC_act, SLC22A3: 4.85

## N#Cc1ccc(Nc2cnccc2SCc2ccccc2C(=O)O)c2ccccc12 [KPH2f]
SLC22A6 (OAT1); ChEMBL CHEMBL5157441, ref PMID 34998055
  primary_SLC_act, SLC22A6: 4.49
SLC22A6 (OAT1); ref Zhao et al., 2022
  IC50: 32.1 µM

## CCOC(=O)N1CCC(=C2c3ccc(Cl)cc3CCc3cccnc32)CC1 [Loratadine]
SLC6A15
  primary_SLC_act: 5.4
HRH1
  other_targets_act: 6.72
PTAFR
  other_targets_act: 4.3
KCNK9
  other_targets_act: 4.2
